From ChEMBL document CHEMBL4373704, “Mucosal Vaccination with a Self-Adjuvanted Lipopeptide Is Immunogenic and Protective against Mycobacterium tuberculosis” (J Med Chem, 2019)
Activity calls are given as the source filed them. The calls are words filed in the database; no cut-off is given here.

Legend:
Mus musculus [1] = species: Mus musculus; experiment: Induction of antigen-specific immunogenicity in C57BL/6 mouse assessed as induction of pulmonary CD4+ T-lymphocyte responses by measuring lung ESAT6-specific CD8+ T-lymphocytes producing IL-17 at 10 ug, in measured 3 weeks after the final vaccination by immunostaining and flow cytometry; assay type: functional, organism-based
Mus musculus [2] = species: Mus musculus; experiment: Induction of antigen-specific immunogenicity in C57BL/6 mouse assessed as induction of pulmonary CD4+ T-lymphocyte responses by measuring lung ESAT6-specific CD8+ T-lymphocytes producing IL-2 at 10 ug, in measured 3 weeks after the final vaccination by immunostaining and flow cytometry; assay type: functional, organism-based
Mus musculus [3] = species: Mus musculus; experiment: Induction of antigen-specific immunogenicity in C57BL/6 mouse assessed as induction of pulmonary CD4+ T-lymphocyte responses by measuring lung ESAT6-specific CD8+ T-lymphocytes producing IFNgamma at 10 ug, in measured 3 weeks after the final vaccination by immunostaining and flow cytometry; assay type: functional, organism-based
Mus musculus [4] = species: Mus musculus; experiment: Induction of antigen-specific immunogenicity in C57BL/6 mouse assessed as induction of pulmonary CD4+ T-lymphocyte responses by measuring lung ESAT6-specific CD8+ T-lymphocytes producing TNFalpha at 10 ug, in measured 3 weeks after the final vaccination by immunostaining and flow cytometry; assay type: functional, organism-based
Mus musculus [5] = experiment: Induction of antigen-specific immunogenicity in C57BL/6 mouse assessed as induction of pulmonary CD4+ T-lymphocyte responses by measuring spleen ESAT6-specific CD8+ T-lymphocytes producing IFNgamma at 10 ug, sc measured 3 weeks after the final vaccination by immunostaining and flow cytometry; assay type: functional, organism-based
Mus musculus [6] = experiment: Induction of antigen-specific immunogenicity in C57BL/6 mouse assessed as induction of pulmonary CD4+ T-lymphocyte responses by measuring spleen ESAT6-specific CD8+ T-lymphocytes producing TNFalpha at 10 ug, sc measured 3 weeks after the final vaccination by immunostaining and flow cytometry; assay type: functional, organism-based
[7] = target: Toll-like receptor 2 (Homo sapiens) (UniProt O60603); experiment: Activation of YFP-tagged TLR2 (unknown origin) expressed in HEK293 cells assessed as induction of IL8 secretion at 8 ug/mL incubated for 16 to 18 hrs by ELISA; assay type: cell-based
Sequence of Toll-like receptor 2 (Homo sapiens) (O60603 whole entry): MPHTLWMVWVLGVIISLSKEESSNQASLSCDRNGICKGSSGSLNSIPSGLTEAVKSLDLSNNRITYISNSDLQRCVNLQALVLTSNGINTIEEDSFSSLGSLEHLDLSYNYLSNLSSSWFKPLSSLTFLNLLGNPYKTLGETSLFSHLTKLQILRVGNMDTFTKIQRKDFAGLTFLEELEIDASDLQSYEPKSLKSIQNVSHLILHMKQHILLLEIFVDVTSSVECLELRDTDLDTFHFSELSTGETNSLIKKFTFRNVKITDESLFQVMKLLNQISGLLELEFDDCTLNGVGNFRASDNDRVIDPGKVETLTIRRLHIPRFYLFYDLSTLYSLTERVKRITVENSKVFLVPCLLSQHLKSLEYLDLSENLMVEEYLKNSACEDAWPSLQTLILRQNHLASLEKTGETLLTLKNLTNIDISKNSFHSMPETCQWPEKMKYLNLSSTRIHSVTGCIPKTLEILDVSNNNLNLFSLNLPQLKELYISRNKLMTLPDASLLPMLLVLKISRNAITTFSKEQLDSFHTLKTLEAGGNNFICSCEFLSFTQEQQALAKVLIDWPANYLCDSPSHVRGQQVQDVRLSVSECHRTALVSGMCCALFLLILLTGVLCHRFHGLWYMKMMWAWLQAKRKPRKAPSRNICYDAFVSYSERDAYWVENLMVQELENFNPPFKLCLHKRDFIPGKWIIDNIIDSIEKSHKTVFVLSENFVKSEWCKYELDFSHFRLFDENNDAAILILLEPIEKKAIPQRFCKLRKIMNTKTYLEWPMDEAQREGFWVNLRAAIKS

[8] = target: Toll-like receptor 2 (Homo sapiens) (UniProt O60603); experiment: Activation of YFP-tagged TLR2 (unknown origin) expressed in HEK293 cells assessed as induction of IL8 secretion at 33.5 ug/mL incubated for 16 to 18 hrs by ELISA; assay type: cell-based
Mus musculus [9] = species: Mus musculus; experiment: Induction of antigen-specific immunogenicity in C57BL/6 mouse assessed as induction of pulmonary CD4+ T-lymphocyte responses by measuring lung ESAT6-specific CD4+ T-lymphocytes producing IL-17 at 14.2 ug, in measured 3 weeks after the final vaccination by immunostaining and flow cytometry; assay type: functional, organism-based
Mus musculus [10] = species: Mus musculus; experiment: Induction of antigen-specific immunogenicity in C57BL/6 mouse assessed as induction of pulmonary CD4+ T-lymphocyte responses by measuring lung ESAT6-specific CD4+ T-lymphocytes producing TNFalpha at 14.2 ug, in measured 3 weeks after the final vaccination by immunostaining and flow cytometry; assay type: functional, organism-based
Mus musculus [11] = species: Mus musculus; experiment: Induction of antigen-specific immunogenicity in C57BL/6 mouse assessed as induction of pulmonary CD4+ T-lymphocyte responses by measuring lung ESAT6-specific CD4+ T-lymphocytes producing INFNgamma at 14.2 ug, in measured 3 weeks after the final vaccination by immunostaining and flow cytometry; assay type: functional, organism-based
Mus musculus [12] = species: Mus musculus; experiment: Induction of antigen-specific immunogenicity in C57BL/6 mouse assessed as induction of pulmonary CD4+ T-lymphocyte responses by measuring lung ESAT6-specific CD4+ T-lymphocytes producing IL-2 at 14.2 ug, in measured 3 weeks after the final vaccination by immunostaining and flow cytometry; assay type: functional, organism-based
Mus musculus [13] = experiment: Induction of antigen-specific immunogenicity in C57BL/6 mouse assessed as induction of pulmonary CD4+ T-lymphocyte responses by measuring lung ESAT6-specific CD4+ T-lymphocytes producing IL-17 at 56.8 ug, sc measured 3 weeks after the final vaccination by immunostaining and flow cytometry; assay type: functional, organism-based
Mus musculus [14] = experiment: Induction of antigen-specific immunogenicity in C57BL/6 mouse assessed as induction of pulmonary CD4+ T-lymphocyte responses by measuring lung ESAT6-specific CD4+ T-lymphocytes producing IL-2 at 56.8 ug, sc measured 3 weeks after the final vaccination by immunostaining and flow cytometry; assay type: functional, organism-based
Mus musculus [15] = experiment: Induction of antigen-specific immunogenicity in C57BL/6 mouse assessed as induction of pulmonary CD4+ T-lymphocyte responses by measuring lung ESAT6-specific CD4+ T-lymphocytes producing IFNgamma at 56.8 ug, sc measured 3 weeks after the final vaccination by immunostaining and flow cytometry; assay type: functional, organism-based
Mus musculus [16] = experiment: Induction of antigen-specific immunogenicity in C57BL/6 mouse assessed as induction of pulmonary CD4+ T-lymphocyte responses by measuring lung ESAT6-specific CD4+ T-lymphocytes producing TNFalpha at 56.8 ug, sc measured 3 weeks after the final vaccination by immunostaining and flow cytometry; assay type: functional, organism-based
Mus musculus [17] = species: Mus musculus; experiment: Induction of antigen-specific immunogenicity in C57BL/6 mouse assessed as induction of pulmonary CD4+ T-lymphocyte responses by measuring spleen ESAT6-specific CD4+ T-lymphocytes producing IL-17 at 14.2 ug, in measured 3 weeks after the final vaccination by immunostaining and flow cytometry; assay type: functional, organism-based
Mus musculus [18] = species: Mus musculus; experiment: Induction of antigen-specific immunogenicity in C57BL/6 mouse assessed as induction of pulmonary CD4+ T-lymphocyte responses by measuring spleen ESAT6-specific CD4+ T-lymphocytes producing IL-2 at 14.2 ug, in measured 3 weeks after the final vaccination by immunostaining and flow cytometry; assay type: functional, organism-based
Mus musculus [19] = species: Mus musculus; experiment: Induction of antigen-specific immunogenicity in C57BL/6 mouse assessed as induction of pulmonary CD4+ T-lymphocyte responses by measuring spleen ESAT6-specific CD4+ T-lymphocytes producing IFNgamma at 14.2 ug, in measured 3 weeks after the final vaccination by immunostaining and flow cytometry; assay type: functional, organism-based
Mus musculus [20] = species: Mus musculus; experiment: Induction of antigen-specific immunogenicity in C57BL/6 mouse assessed as induction of pulmonary CD4+ T-lymphocyte responses by measuring spleen ESAT6-specific CD4+ T-lymphocytes producing TNFalpha at 14.2 ug, in measured 3 weeks after the final vaccination by immunostaining and flow cytometry; assay type: functional, organism-based
Mus musculus [21] = experiment: Induction of antigen-specific immunogenicity in C57BL/6 mouse assessed as induction of pulmonary CD4+ T-lymphocyte responses by measuring spleen ESAT6-specific CD4+ T-lymphocytes producing IL-2 at 56.8 ug, sc measured 3 weeks after the final vaccination by immunostaining and flow cytometry; assay type: functional, organism-based
Mus musculus [22] = experiment: Induction of antigen-specific immunogenicity in C57BL/6 mouse assessed as induction of pulmonary CD4+ T-lymphocyte responses by measuring spleen ESAT6-specific CD4+ T-lymphocytes producing TNFalpha at 56.8 ug, sc measured 3 weeks after the final vaccination by immunostaining and flow cytometry; assay type: functional, organism-based
Mus musculus [23] = experiment: Induction of antigen-specific immunogenicity in C57BL/6 mouse assessed as induction of pulmonary CD4+ T-lymphocyte responses by measuring spleen ESAT6-specific CD4+ T-lymphocytes producing IL-17 at 56.8 ug, sc measured 3 weeks after the final vaccination by immunostaining and flow cytometry; assay type: functional, organism-based
Mus musculus [24] = experiment: Induction of antigen-specific immunogenicity in C57BL/6 mouse assessed as induction of pulmonary CD4+ T-lymphocyte responses by measuring spleen ESAT6-specific CD4+ T-lymphocytes producing IFNgamma at 56.8 ug, sc measured 3 weeks after the final vaccination by immunostaining and flow cytometry; assay type: functional, organism-based

H-QIMYNYPAM-OH
Activity (Mus musculus [1]): inactive | Activity (Mus musculus [2]): inactive | Activity (Mus musculus [3]): inactive | Activity (Mus musculus [4]): inactive | Activity (Mus musculus [5]): Active | Activity (Mus musculus [6]): Active | Activity [7]: inactive

CCCCCCCCCCCCCCCC(=O)OC[C@H](CSC[C@H](N)C(=O)N[C@@H](CO)C(=O)N[C@@H](CCCCN)C(=O)N[C@@H](CCCCN)C(=O)N[C@@H](CCCCN)C(=O)N[C@@H](CCCCN)C(=O)NCCOCCOCC(=O)N[C@@H](CCSC)C(=O)N[C@H](C(=O)N[C@@H](CCC(=O)O)C(=O)N[C@@H](CCC(N)=O)C(=O)N[C@@H](CCC(N)=O)C(=O)N[C@@H](Cc1c[nH]c2ccccc12)C(=O)N[C@@H](CC(N)=O)C(=O)N[C@@H](Cc1ccccc1)C(=O)N[C@@H](C)C(=O)NCC(=O)N[C@H](C(=O)N[C@@H](CCC(=O)O)C(=O)N[C@@H](C)C(=O)N[C@@H](C)C(=O)N[C@@H](C)C(=O)N[C@@H](CO)C(=O)N[C@@H](C)C(=O)N[C@H](C(=O)N[C@@H](CCC(N)=O)C(=O)NCC(=O)N[C@@H](CCC(N)=O)C(=O)N[C@H](C(=O)N[C@@H](CCSC)C(=O)N[C@@H](Cc1ccc(O)cc1)C(=O)N[C@@H](CC(N)=O)C(=O)N[C@@H](Cc1ccc(O)cc1)C(=O)N1CCC[C@H]1C(=O)N[C@@H](C)C(=O)N[C@@H](CCSC)C(=O)O)[C@@H](C)CC)[C@@H](C)CC)[C@@H](C)CC)[C@@H](C)O)OC(=O)CCCCCCCCCCCCCCC
Activity [8]: Active | Activity (Mus musculus [9]): Active | Activity (Mus musculus [10]): Active | Activity (Mus musculus [11]): Active | Activity (Mus musculus [12]): Active | Activity (Mus musculus [13]): inactive | Activity (Mus musculus [14]): inactive | Activity (Mus musculus [15]): inactive | Activity (Mus musculus [16]): inactive | Activity (Mus musculus [17]): Active | Activity (Mus musculus [18]): Active | Activity (Mus musculus [19]): Active | Activity (Mus musculus [20]): Active | Activity (Mus musculus [21]): Active | Activity (Mus musculus [22]): Active | Activity (Mus musculus [23]): inactive | Activity (Mus musculus [24]): inactive
